{"source": "patent US10806798B2", "about": "“Compound with effects of thrombolysis, free radical scavenging and thrombus-targeting” (Shanghai Lumosa Therapeutics Co., Ltd., priority 2012, dated 2020)", "key": {"rats with stroke [1]": {"test_system": "rats with stroke", "experiment": "Successive treatments starting 4 h after the onset of stroke (Zealonga scores)", "format": "in vivo, SD rats", "details": "for number of rats scored Score 0 / number of rats scored Score 1 / number of rats scored Score 2: urokinase 20000 IU/kg once per day from 4 h after stroke onset, n=6", "experimental": "The efficacy was represented by neural function scores, and a lower score indicates higher efficacy. A 10% chloral hydrate solution was injected intraperitoneally into male SD rats at a dosage of 400 mg/kg body weight for anesthesia. A longitudinal incision was made at the center of the neck, and the right carotid common artery trunk was dissected (about 3 cm in length). Carotid external artery branches were each dissected and ligated at the hyoid level, and the carotid internal artery was dissected at the swollen part of the neck. The open incision in the carotid internal artery and the proximal end of the common carotid artery were occluded respectively with noninvasive arterial clips, and the distal end of the carotid external artery was ligated. A catheter containing 0.5 mL thrombus suspension in normal saline was inserted in the carotid external artery trunk. At the same time when the clip on the carotid internal artery was released, the 0.5 mL thrombus suspension in normal saline in the catheter slowly flew from the carotid external artery to its proximal end, and then was injected into the arteries in brain through the carotid internal artery. Subsequently, the proximal end of the carotid artery was ligated, the arterial clips on the carotid internal artery and the common carotid artery were released, and blood flow was restored. After the wound was stitched up, 20,000 IU penicillin was intramuscularly injected for prevention from infection. After 4 h, compound Ie in normal saline (at a dosage of 1 μmol/kg, n=1), urokinase in normal saline (at a dosage of 20000 IU/kg, n=6) or tPA in normal saline (at a dosage of 3 mg/kg, n=6) was infused through the tail vein. Infusion of compound Ie in normal saline through rat tail vein was carried out once per day for 6 consecutive days, observed for 7 days. The rats were compared to themselves each day, and evaluated for degree of damage in neural function by the Zealonga method. Alternatively, infusion of urokinase in normal saline through rat tail vein was carried out once per day for two consecutive days, the rats were compared to themselves each day, and evaluated for the degree of damage in neural function by the Zealonga method. Alternatively, infusion of tPA in normal saline through rat tail vein was carried out once per day for two consecutive days, the rats were compared to themselves each day, and evaluated for the degree of damage in neural function by the Zealonga method. A score of 0 indicated no sign of loss in neural function, 1 indicated the front limbs on the undamaged side could not stretch out, 2 indicated walking toward the undamaged side, 3 indicated tail-chasing walking in circles toward the undamaged side, 4 indicated involuntary walking with disturbance of consciousness, and 5 indicated death."}, "rats with stroke [2]": {"test_system": "rats with stroke", "experiment": "Immediate treatment after stroke onset with different dosages of Ie (Zealonga scores)", "format": "in vivo, SD rats", "experimental": "A 10% chloral hydrate solution (400 mg/kg) was injected intraperitoneally into male SD rats (250 to 300 g) for anesthesia. An incision of about 2 cm in length was longitudinally made slightly on the right to the center of the neck, and the right carotid common artery, carotid external artery and carotid internal artery were dissected along the margin of the inner side of sternocleidomastoid muscles. The open incision in the carotid internal artery and the proximal end of the common carotid artery were occluded respectively with noninvasive arterial clips. A small incision was made on the carotid external artery, and the distal end of the carotid external artery was ligated. The arterial clip at the proximal end of the carotid external artery was released, and 10 μl blood was drawn before the proximal end of the common carotid artery was again occluded with a noninvasive arterial clip. The 10 μl blood drawn was placed in a 1 mL EP vial and kept at RT for 30 min until coagulation of blood, and then transferred into a −20° C. refrigerator for 1 h to allow solid coagulation. After 1 h, the blood clots were taken out, added into 1 mL saline, and then broken into relatively uniform microthrombus by using a steel spatula. The microthrombus suspension was then transferred into a 1 mL injector until use. At the same time when the clip on the carotid internal artery of the rat was released, the 1 mL thrombus suspension in the injector was slowly injected from the carotid external artery of the rat to its proximal end, and then was injected into the brain of the rat through the carotid internal artery. Subsequently, the proximal end of the carotid external artery was ligated, the arterial clips on the carotid internal artery and the carotid common artery were released, and blood flow was restored. Injection of urokinase in normal saline (positive control group, at a dosage of 20000 IU/kg), tPA in normal saline (positive control group, at a dosage of 3 mg/kg), normal saline (blank control group, at a dosage of 3 mL/kg), or compound Ie in normal saline (at a dosage of 1 μmol/kg, 0.1 μmol/kg or 0.01 μmol/kg) was carried out. 24 h after the rats were awake, the degree of damage in neural function was evaluated by the Zealonga method. A score of 0 indicated no sign of loss in neural function, 1 indicated the front limbs on the undamaged side could not stretch out, 2 indicated walking toward the undamaged side, 3 indicated tail-chasing walking in circles toward the undamaged side, 4 indicated involuntary walking with disturbance of consciousness, and 5 indicated death. As shown in the results, in rats receiving immediate treatment after the onset of stroke with […] compound Ie, the percentage of rats with a neural function score of 0 was 60%, 30%, and 0%, respectively; and the percentage of rats with a neural function score of 1 was 20%, 30%, and 10%, respectively."}}, "data": [{"substance": "urokinase", "values": [{"measurement": "number of rats scored Score 0", "setting": "rats with stroke [1]; Day 1", "result": 2, "unit": "rats"}, {"measurement": "number of rats scored Score 1", "setting": "rats with stroke [1]; Day 1", "result": 3, "unit": "rats"}, {"measurement": "number of rats scored Score 2", "setting": "rats with stroke [1]; Day 1", "result": 1, "unit": "rat rats"}, {"measurement": "number of rats scored Score 0", "setting": "rats with stroke [1]; Day 2", "result": 3, "unit": "rats"}, {"measurement": "number of rats scored Score 1", "setting": "rats with stroke [1]; Day 2", "result": 1, "unit": "rat^ rats"}, {"measurement": "number of rats scored Score 2", "setting": "rats with stroke [1]; Day 2", "result": 1, "unit": "rat rats"}, {"measurement": "rats died", "setting": "rats with stroke [1]; out of 6 rats, within 48 h, urokinase 20000 IU/kg each day from 4 h after stroke onset", "result": 2}, {"measurement": "autopsy on the dead rats", "setting": "rats with stroke [1]; urokinase 20000 IU/kg each day from 4 h after stroke onset", "result": "hemorrhage in internal organs, particularly severe hemorrhage in lungs"}, {"measurement": "percentage of rats with a neural function score of 0", "setting": "rats with stroke [2]; 20000 IU/kg urokinase", "result": 10, "unit": "%"}, {"measurement": "percentage of rats with a neural function score of 1", "setting": "rats with stroke [2]; 20000 IU/kg urokinase", "result": 50, "unit": "%"}, {"measurement": "number of rats scored Score 0", "setting": "rats with stroke [2]; urokinase 20000 IU/kg, n = 10", "result": 1}, {"measurement": "number of rats scored Score 1", "setting": "rats with stroke [2]; urokinase 20000 IU/kg, n = 10", "result": 5}, {"measurement": "number of rats scored Score 2", "setting": "rats with stroke [2]; urokinase 20000 IU/kg, n = 10", "result": 0}, {"measurement": "number of rats scored Score 3", "setting": "rats with stroke [2]; urokinase 20000 IU/kg, n = 10", "result": 3}, {"measurement": "number of rats scored Score 4", "setting": "rats with stroke [2]; urokinase 20000 IU/kg, n = 10", "result": 1}, {"measurement": "number of rats scored Score 5", "setting": "rats with stroke [2]; urokinase 20000 IU/kg, n = 10", "result": 0}]}]}
